Assay results reported in patent US20160213742A1, “COMPOSITIONS AND METHODS FOR THE TREATMENT OF FUNGAL INFECTIONS” (priority 2013, published 2016).
Converted amounts (≈) assume the structure as drawn.

Columns and labels:
Assay type in all cases: cell-based
C. glabrata ATCC 90030 = experiment: microbe, parasite or virus in culture
In short: (§1)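 Broth microdilution in CLSI-prepared RPMI, pH 7.0, with serial 2-fold drug dilutions; final DMSO 1.25% for investigational agents. Candida inoculum from 0.5 McFarland diluted 1:100; Aspergillus at ~0.2-2.5×10^4 CFU/mL. Incubated 35° C. ~24-48 hr; MIC at visible growth inhibition, MEC at compact rounded hyphal form.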

C. krusei ATCC 14243 = experiment: microbe, parasite or virus in culture
In short: as §1

[1] = tested on: C. parapsilosis ATCC 22019; experiment: microbe, parasite or virus in culture
In short: as §1

C. albicans ATCC 90028 = experiment: microbe, parasite or virus in culture
In short: as §1

A. flavus MX 5948 = experiment: MEC assay (Example 31); conditions: RPMI pH 7.0, 35° C., 24-48 hr
In short: as §1

A. fumigatus MYA-4609 = experiment: MEC assay (Example 31); conditions: RPMI pH 7.0, 35° C., 24-48 hr
In short: as §1

A. fumigatus ATCC 13073 = experiment: MEC assay (Example 31); conditions: RPMI pH 7.0, 35° C., 24-48 hr
In short: as §1

A. fumigatus MX 5944 = experiment: MEC assay (Example 31); conditions: RPMI pH 7.0, 35° C., 24-48 hr
In short: as §1

A. fumigatus MYA-3626 = experiment: MEC assay (Example 31); conditions: RPMI pH 7.0, 35° C., 24-48 hr
In short: as §1

[2] = tested on: Neutrophils purified from human peripheral blood; experiment: Human Neutrophil Transwell Migration Assay; conditions: 37° C., 45 minutes, % of the maximum migration possible
In short: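 Neutrophils (~50,000–100,000) were placed above 5-micron transwell inserts with test compound in the lower chamber and allowed to migrate 45 min at 37° C. Migrated cells were quantified by ATP luminescence; medium-only background was subtracted and values expressed as % of cells added directly to the bottom well.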

Row | Compound | MIC (C. glabrata ATCC 90030; ATCC 90030, pH 7) | MIC (C. krusei ATCC 14243; ATCC 14243, pH 7) | MIC ([1]; ATCC 22019, pH 7) | MIC (C. albicans ATCC 90028; ATCC 90028, pH 7) | MEC (A. flavus MX 5948) | MEC (A. fumigatus MYA-4609) | MEC (A. fumigatus ATCC 13073) | MEC (A. fumigatus MX 5944) | MEC (A. fumigatus MYA-3626) | % Neutrophil Migration ([2]; conc 0.001 μg/mL) | % Neutrophil Migration ([2]; conc 0.01 μg/mL) | % Neutrophil Migration ([2]; conc 0.1 μg/mL) | % Neutrophil Migration ([2]; conc 1 μg/mL) | % Neutrophil Migration ([2]; conc 10 μg/mL) | MIC (C. glabrata ATCC 90030; C. glabrata ATCC 90030, RPMI pH 7.0, 35° C., 24-48 hr) | MIC (C. krusei ATCC 14243; C. krusei ATCC 14243, RPMI pH 7.0, 35° C., 24-48 hr) | MIC ([1]; C. parapsilosis ATCC 22019, RPMI pH 7.0, 35° C., 24-48 hr) | MIC (C. albicans ATCC 90028; C. albicans ATCC 90028, RPMI pH 7.0, 35° C., 24-48 hr)
1 | CC[C@H](C)C[C@H](C)CCCCCCCCC(=O)N[C@H]1C[C@@H](O)[C@@H](NCCN)NC(=O)[C@@H]2[C@@H](O)CCN2C(=O)[C@H]([C@H](O)CCNC(=O)[C@H](Cc2ccccc2)NC(=O)[C@H](CC(C)C)NC(=O)[C@H](CCSC)NC=O)NC(=O)[C@H]([C@H](O)[C@@H](O)c2ccc(O)cc2)NC(=O)[C@@H]2C[C@@H](O)CN2C(=O)[C@H]([C@@H](C)O)NC1=O [Compound 1] | 4 µg/mL (≈ 2.64 µM) | 8 µg/mL (≈ 5.29 µM) | 16 µg/mL (≈ 10.6 µM) | 2 µg/mL (≈ 1.32 µM) | 0.12 to 1 µg/mL | 0.12 to 1 µg/mL | 0.12 to 2 µg/mL | 0.12 to 0.5 µg/mL | 0.25 to 0.5 µg/mL | −4.7% | 67.9% | 70.7% | −10.6% | −11.2% |  |  |  | 
2 | CC[C@H](C)C[C@H](C)CCCCCCCCC(=O)N[C@H]1C[C@@H](O)[C@@H](OCCN)NC(=O)[C@@H]2[C@@H](O)CCN2C(=O)[C@H]([C@H](O)CCNC(=O)[C@H](Cc2ccccc2)NC(=O)[C@H](CC(C)C)NC(=O)[C@H](CCSC)NC=O)NC(=O)[C@H]([C@H](O)[C@@H](O)c2ccc(O)cc2)NC(=O)[C@@H]2C[C@@H](O)CN2C(=O)[C@H]([C@@H](C)O)NC1=O [Compound 11] | 8 µg/mL (≈ 5.28 µM) | 16 µg/mL (≈ 10.6 µM) | 32 µg/mL (≈ 21.1 µM) | 2 µg/mL (≈ 1.32 µM) | 0.06 µg/mL | 0.06 µg/mL | ≦0.06-0.06 μg/mL | 0.12 µg/mL | 0.06 to 0.12 µg/mL | −4.7% | 80.3% | 28.3% | −8.0% | −10.9% |  |  |  | 
3 | caspofungin acetate [reference compound] |  |  |  |  | ≦0.015-0.06 μg/mL | ≦0.03-1^ μg/mL | ≦0.03-0.06 μg/mL | 0.03 to 0.12 µg/mL | ≦0.03-0.12 μg/mL |  |  |  |  |  | 0.06 to 0.25 µg/mL | 0.5 to 1 µg/mL | 0.5 to 1 µg/mL | 0.03 to 0.12 µg/mL
